Assays:
[1] = tested on: A2780 ovarian cancer cells; assay: MTT cytotoxicity assay, A2780; format: cell-based, human; details: A2780, 72 h, mean ± SD n = 3
Method: (§1) The cytotoxic activity of all complexes was screened against A2780 (ovarian, Sigma-Aldrich, Lisboa, Portugal), MDAMB231 (breast, triple negative, ATCC), and HT29 (colon, ATCC) human cancer cells. Cells were grown in RPMI 1640 (A2780) or DMEM containing GlutaMax-I (MDAMB231), or McCoy’s (HT29) supplemented with 10% FBS and 1% penicillin/streptomycin (Invitrogen, Lisboa, Portugal). All cell lines were kept in a CO2 incubator (Heraeus, Hanau, Germany) with 5% CO2 at 37 °C in a humidified atmosphere. Cell viability was measured using the colorimetric MTT (3-(4,5-dimethylthiazol-2-yl)-2,5-diphenyltetrazolium bromide) assay. For the assays, cells were seeded in 200 μL of complete medium in 96-well plates and incubated at 37 °C for 24 h prior to complex treatment to allow cell adherence. The stock solutions in water (20 mM) of the complexes were freshly prepared and used for sequential dilutions in medium within the concentration range of 10^−10–10^−4 M. Cisplatin was also included in this study as a positive control. After careful removal of the medium, […] of a serial dilution of compounds in fresh medium was added to the cells, and incubation was carried out for 72 h at 37 °C. At the end of the treatment, the medium was discarded, and the cells were incubated with […] of an MTT solution in PBS (0.5 mg mL^−1). After 3 h incubation, medium was removed, and DMSO was added to solubilize the purple formazan crystals formed. The absorbance at 570 nm was measured using a plate spectrophotometer (Power Wave Xs, Bio-Tek, Winooski, VT, USA). Each experiment was repeated at least three times and each concentration tested in at least six replicates. The IC50 values were calculated from dose–response curves analyzed with the GraphPad Prism software (version 5.0).

[2] = tested on: HT29 colon cancer cells; assay: MTT cytotoxicity assay, HT29; format: cell-based, human; details: HT29, 72 h, mean ± SD n = 3
Method: as §1

[3] = n-Octanol/water partition coefficient, shake-flask method; format: physicochemical; details: room temperature
Method: The lipophilicity of the complexes was measured by the shake-flask method. Distilled water and n-octanol were mixed vigorously for 24 h at 25 °C, to promote solvent saturation in both phases, before the experiments. […] Aliquots of stock solutions were equilibrated with octanol for 4 h in a mechanical shaker. The phase ratio was 2 mL/2 mL (water/n-octanol). The aqueous and octanol layers were carefully separated (by centrifugation at 5000 rpm for 10 min), and UV–vis absorption spectra of the compounds were registered in both phases. The concentration for each sample was determined using the calibration curve. Triplicate experiments have been performed for each complex and the averages were calculated.

[4] = molecular target: T1, fatty-acid-free human serum albumin (HSA^faf) (Homo sapiens, UniProt P02768); assay: Fluorescence quenching of HSA^faf (Trp214); format: binding; details: for KSV: pH 7.4
T1 construct: purchased Sigma-Aldrich A3782
Method: Human serum albumin (HSA) was dissolved in 10 mM HEPES buffer (pH 7.4). The HSA concentration was determined spectrophotometrically using the absorbance value at 280 nm (ε280 = 36,500 M^−1cm^−1). Complex 6 was dissolved in 10 mM HEPES buffer (pH 7.4). A series of ruthenium-protein batch solutions were prepared by adding different concentrations of ruthenium solutions to the protein solution prepared previously. For fluorescence acquisition, the final HSA concentration was 2.5 μM, and the ruthenium were 0, 0.6, 1.2, 1.8, 2.5, 5, 7.5, 10, 12.5, 15, 17.5, 20, 22.5, 25, 27.5, 30, 32.5, 35, 37.5, 40, 42.5, and 45 μM. […] The reference solutions were prepared following the procedures described above without protein.
Steady-state fluorescence measurements were carried out with a Fluorolog Model-3.22 spectrofluorometer from Horiba Jobin Yvon at 293.15, 298.15, and 310.15 K. All measurements were performed in Hellma® semi-micro fluorescence cuvettes (Suprasil® quartz, path length 10 × 4 mm, chamber volume […]) with the 10 mm path length for the excitation of the sample. The excitation and emission slit widths were fixed at 4.0 nm, and the excitation wavelength was set at 295 nm to selectively excite the tryptophan 214 residue. The emission spectra were recorded from 305 to 550 nm. Solutions of ruthenium complex in 10 mM HEPES buffer pH 7.4 in corresponding concentrations were used as reference for the measured fluorescence spectra of protein-complex mixtures. […] The fluorescence intensities were corrected for the absorption of the exciting light and re-absorption of the emitted light to decrease the inner filter effect using UV–visible absorption data recorded for each sample on a Jasco V-660 spectrophotometer in the range of 260 to 900 nm with 1 cm path quartz cells.
Fluorescence quenching of HSA by complex [Ru(η5-C5H5)(mTPPMS)(bopy)][CF3SO3] (6) […]
F0 = 1 + K τ (Q) = 1 + K (Q) (S1) where F0 and F are the fluorescence intensities of HSA in the absence and presence of the quencher [Ru(η5-C5H5)(mTPPMS)(bopy)][CF3SO3]; [Q] is the quencher concentration; Kq is the bimolecular quenching constant; t0 is the average fluorescence lifetime of HSA in the absence of the quencher, and KSV is the Stern-Volmer quenching constant.
Figure S10. Stern-Volmer plots at pH7.4 for the quenching of (A) HSA and (B) HSA faf by [Ru(η5-C5H5)(mTPPMS)(bopy)][CF3SO3] at three temperatures (◆) 293 K, (●) 298 K, (▲) 310 K.
log(F0 − F) = log K + nlog[Q] ( S2) […]
where Ka is the association constant for a site and n is the number of binding sites by protein.
Figure S11. Double-log plots for the fluorescence quenching for the (A) {HSA-[Ru(η5-C5H5)(mTPPMS)(bopy)][CF3SO3]} and (B) {HSAfaf-[Ru(η5-C5H5)(mTPPMS)(bopy)][CF3SO3]} systems at three temperatures (◆) 293 K, (●) 298 K, (▲) 310 K. […]

[5] = tested on: MDAMB231 triple-negative breast cancer cells; assay: MTT cytotoxicity assay, MDAMB231; format: cell-based, human; details: MDAMB231, 72 h, mean ± SD n = 3
Method: as §1

T1 sequence (P02768 25-609): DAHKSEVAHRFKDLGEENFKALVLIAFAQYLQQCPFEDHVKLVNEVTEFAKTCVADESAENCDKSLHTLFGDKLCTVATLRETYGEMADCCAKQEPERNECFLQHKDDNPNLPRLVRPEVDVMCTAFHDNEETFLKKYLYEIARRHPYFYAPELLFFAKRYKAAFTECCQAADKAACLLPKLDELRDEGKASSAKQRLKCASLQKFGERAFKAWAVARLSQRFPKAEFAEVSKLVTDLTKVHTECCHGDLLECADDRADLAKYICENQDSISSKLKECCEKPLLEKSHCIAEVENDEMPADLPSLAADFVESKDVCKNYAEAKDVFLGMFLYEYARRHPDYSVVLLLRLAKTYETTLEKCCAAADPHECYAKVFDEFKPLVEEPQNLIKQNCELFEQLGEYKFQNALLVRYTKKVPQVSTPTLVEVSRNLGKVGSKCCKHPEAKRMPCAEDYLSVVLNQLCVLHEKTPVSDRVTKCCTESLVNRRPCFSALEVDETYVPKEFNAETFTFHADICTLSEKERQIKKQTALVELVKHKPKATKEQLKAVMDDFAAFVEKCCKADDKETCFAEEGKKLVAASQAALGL

## [RuCp(mTPPMSNa)(bopy)][CF3SO3] [Compound 6]
[1]
  IC50: 0.37 ± 0.2 µM
[2]
  IC50: 72.4 ± 50 µM
[3]
  Log Po/w: 5.68 ± 0.05
[4]; 293.15 K
  Ka (association constant for a site): (57.293 ± 1.27) × 10^4 L mol^−1
  Kq: (28.7 ± 0.49) × 10^12 L mol^−1 s^−1
  n (number of binding sites): 1.048
  ΔG: -37.426 kcal/mol
  KSV: (28.7 ± 0.49) × 10^4 L mol^−1
[4]; 298.15 K
  Ka (association constant for a site): (66.764 ± 1.29) × 10^4 L mol^−1
  Kq: (40.7 ± 0.75) × 10^12 L mol^−1 s^−1
  n (number of binding sites): 1.023
  ΔG: -37.899 kcal/mol
  KSV: (40.7 ± 0.75) × 10^4 L mol^−1
[4]; 310.15 K
  Ka (association constant for a site): (80.668 ± 1.17) × 10^4 L mol^−1
  Kq: (72.6 ± 1.02) × 10^12 L mol^−1 s^−1
  n (number of binding sites): 1.006
  ΔG: -39.034 kcal/mol
  KSV: (72.6 ± 1.02) × 10^4 L mol^−1
[4]; Van't Hoff, 293.15-310.15 K
  ΔH: 40.51 (R^2 = 0.9938) kJ mol^−1
  ΔS: 396.16 J mol^−1 K^−1
[4]; highest Ru concentration (45 μM), pH 7.4, incubation at 298 K for 24 h
  Quenching of fluorescence intensity: 97%
[5]
  IC50: 13.4 ± 0.4 µM

Reference: PMC9321894, “Design and Anticancer Properties of New Water-Soluble Ruthenium–Cyclopentadienyl Complexes” (Pharmaceuticals, 2022)
